Assay results: ChEMBL document CHEMBL1150551, “Novel angiotensin converting enzyme inhibitors containing -hydroxy ketomethylene dipeptide isosteres” (Bioorg Med Chem Lett, 1994); call rule not given here

Experiments:
[1] = target: T1, Angiotensin-converting enzyme (Oryctolagus cuniculus, UniProt P12822); assay: Inhibitory concentration against angiotensin converting enzyme (ACE)
T1 sequence (P12822 whole entry): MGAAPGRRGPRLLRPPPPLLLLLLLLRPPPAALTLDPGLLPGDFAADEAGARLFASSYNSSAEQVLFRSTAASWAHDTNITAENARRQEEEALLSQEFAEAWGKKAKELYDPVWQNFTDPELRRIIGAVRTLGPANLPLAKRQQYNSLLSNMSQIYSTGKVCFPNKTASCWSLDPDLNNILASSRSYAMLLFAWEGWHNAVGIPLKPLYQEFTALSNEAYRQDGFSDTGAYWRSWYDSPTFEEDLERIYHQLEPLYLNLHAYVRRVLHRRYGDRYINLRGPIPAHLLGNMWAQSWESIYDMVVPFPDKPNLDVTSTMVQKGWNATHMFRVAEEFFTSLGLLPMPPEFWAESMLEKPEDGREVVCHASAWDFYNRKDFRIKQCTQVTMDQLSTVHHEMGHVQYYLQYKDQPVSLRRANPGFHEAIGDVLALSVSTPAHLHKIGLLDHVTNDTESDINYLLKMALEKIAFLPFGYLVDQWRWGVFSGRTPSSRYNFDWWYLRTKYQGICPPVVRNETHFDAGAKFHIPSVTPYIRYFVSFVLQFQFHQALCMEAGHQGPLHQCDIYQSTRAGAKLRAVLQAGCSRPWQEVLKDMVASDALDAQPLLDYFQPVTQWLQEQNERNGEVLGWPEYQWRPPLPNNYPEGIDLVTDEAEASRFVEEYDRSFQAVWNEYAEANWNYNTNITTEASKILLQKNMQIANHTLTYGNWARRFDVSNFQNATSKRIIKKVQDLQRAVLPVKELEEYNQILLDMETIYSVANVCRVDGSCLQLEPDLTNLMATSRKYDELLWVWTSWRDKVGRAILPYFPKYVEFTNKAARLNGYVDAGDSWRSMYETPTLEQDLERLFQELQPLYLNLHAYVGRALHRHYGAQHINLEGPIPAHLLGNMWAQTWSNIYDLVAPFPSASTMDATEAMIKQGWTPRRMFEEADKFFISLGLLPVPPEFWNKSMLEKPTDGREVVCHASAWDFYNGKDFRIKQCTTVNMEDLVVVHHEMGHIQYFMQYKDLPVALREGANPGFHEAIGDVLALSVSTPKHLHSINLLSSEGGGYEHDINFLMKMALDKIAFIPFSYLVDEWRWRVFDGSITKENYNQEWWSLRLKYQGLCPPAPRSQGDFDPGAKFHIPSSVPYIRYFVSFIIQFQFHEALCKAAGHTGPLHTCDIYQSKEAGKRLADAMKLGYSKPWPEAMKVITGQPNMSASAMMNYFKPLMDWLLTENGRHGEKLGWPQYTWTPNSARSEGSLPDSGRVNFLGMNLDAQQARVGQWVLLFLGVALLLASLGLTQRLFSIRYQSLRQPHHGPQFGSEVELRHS

[2] = target: T1, Angiotensin-converting enzyme; assay: Inhibitory concentration against angiotensin converting enzyme (ACE); No activity in experimental concentration range

| Compound | IC50 [1] | IC50 [2] |
| --- | --- | --- |
| O=C(N[C@@H](Cc1ccccc1)C(=O)C[C@@H](O)C(=O)N1CCC[C@H]1C(=O)O)c1ccccc1 | 5 µM |  |
| O=C(N[C@@H](Cc1ccccc1)C1=NO[C@H](C(=O)N2c3ccccc3C[C@H]2C(=O)O)C1)c1ccccc1 |  | Not Active |
| O=C(N[C@@H](Cc1ccccc1)C(=O)C[C@H](O)C(=O)N1CCC[C@H]1C(=O)O)c1ccccc1 | 100 µM |  |
| O=C(N[C@@H](Cc1ccccc1)C1=NO[C@H](C(=O)N2CCC[C@H]2C(=O)O)C1)c1ccccc1 |  | Not Active |
| O=C(N[C@@H](Cc1ccccc1)C(=O)C[C@H](O)C(=O)N1c2ccccc2C[C@H]1C(=O)O)c1ccccc1 | 5 µM |  |
| O=C(N[C@@H](Cc1ccccc1)C(=O)C[C@@H](O)C(=O)N1c2ccccc2C[C@H]1C(=O)O)c1ccccc1 | 0.09 µM |  |
| O=C(N[C@@H](Cc1ccccc1)C1=NO[C@@H](C(=O)N2CCC[C@H]2C(=O)O)C1)c1ccccc1 |  | Not Active |
| O=C(N[C@@H](Cc1ccccc1)C1=NO[C@@H](C(=O)N2c3ccccc3C[C@H]2C(=O)O)C1)c1ccccc1 | > 1000 µM |  |
